One assay concerns SD male rats. The assay can be described thus: Measurement of bladder volume (saline infusion under urethane anesthesia). The format is in vivo, rat. To be noted: sc, 12 hours after administration. The method, then: Measurement of Mouse Bladder Volume
Six or seven of 7 weeks old SD male rats were used in a group in this test. At 12 hours after the subcutaneous administration of the drug, the abdomen of rat was cut open under urethane anesthesia (1.2 g/kg, ip) to expose the bladder. Physiological saline solution was infused into the bladder at the rate of 0.1 ml/minutes to check excretion reflection. All of the urine was drained off, and the physiological saline solution was infused again, and then, the bladder volume of mouse was calculated by measuring the time to urination.

For assay [1], the system named is ICR male mice. Nature of the assay: Tail-flick test (55° C. water bath). The format is in vivo, mouse. To be noted: po. The method, then:
Eight of 5 weeks old ICR male mice were used in a group in this test. The tail of the mouse was dipped by about 2 cm from the end into water in a water bath warmed to 55° C., and the latency to lift the tail up was measured. The latency was previously measured before the administration of the drug, and the mouse having the latency of 2 seconds or less was selected and used in the test. The drug was administered orally, and the latency was measured after 3, 6 and 24 hours. Cut-off time was set to 5 seconds. The drug was suspended in 0.5% methylcellulose, and the dose was 20 ml/kg BW.
On the technique in general: In hot-plate and tail-flick tests a longer latency is read as antinociception.

Assay [2] concerns vanilloid receptor-1 (VR1) expressed in CHO-K1 cells (RVR1/CHO and HVR1/CHO strains). Nature of the assay: Evaluation of compounds based on cell death (survival rate of VR1-expressing CHO strains). Further details: species or system rat, human. To be noted: 1 μM test compound, 3 hours reaction, Alama Blue, cultured 20 hours; strain (RVR1/CHO or HVR1/CHO) not stated. On the procedure:
CHO-K1 cells (ATCC No.: CCL-61) were grown in a 150 cm^2 of a cell culture flask (Corning Coaster) using a Ham's F12 medium (GIBCO BRL) containing 10% fetal bovine serum (GIBCO BRL) and were collected from the flask by using 0.5 g/L trypsin-0.2 g/L EDTA (GIBCO BRL). The cells were washed with PBS (GIBCO BRL), centrifuged (1000 rpm, 5 minutes) and suspended in PBS. Then, the DNA was introduced into the cells using Gene Pulser (Bio-Rad Laboratories Inc.) under the following conditions. Namely, 1×10^7 cells and 15 μg of plasmid pRVR1 for expression of rat VR1 were added into a cuvette having a 0.4 cm of gap, and electroporation was carried out at an electric voltage of 0.25 kV and a capacitance of 960 μF. Subsequently, the cells were transferred into the Ham's F12 medium containing 10% fetal bovine serum, and incubated for 24 hours. The cells were then collected, centrifuged and suspended in Ham's F12 medium containing 10% fetal bovine serum and Geneticin (GIBCO BRL) at a concentration of 500 μg/ml. […]
Subsequently, the resulting Geneticin-resistant strains were cultured in the 96-well plates (Corning Coaster). […] Subsequently, the radioactivity was measured with TopCount (Packard Industry Company, Inc.) to select RVR1/CHO strains of which calcium concentration in the cells is increased when capsaicin is added thereto. […]

The subject of assay [3] is ICR male mice. The assay can be described thus: Mouse eye dropping test (stimulating and desensitizing activity, capsaicin challenge). Conditions: 0.01 ml dropped to the eye; capsaicin (0.3 μg) 1 hour after initial treatment; desensitizing activity. The format is in vivo. The method, then:
Eight of 4 to 5 weeks old ICR male mice (Japan SLC Inc.) were used in a group in this test. 0.01 ml of the drug was added dropwise to the eye, and the time when the mouse continued to close the eye was measured. The stimulation of the drug was evaluated as positive when the time is more than 10 seconds, and as negative when the time is 10 seconds or less. At 1 hour after the initial treatment, a solution of capsaicin (0.3 μg) was added dropwise to the eye to evaluate whether the stimulation is or not, and examined the desensitizing activity of the compound. The stimulating and desensitizing activity of the drug were calculated as a value of ED50. The drug was dissolved in a mixture of 10% ethanol, 20% Tween 80 and 70% physiological saline solution.

Structures are written as SMILES.

The values that follow come from patent US7582651B2, “Pyrrolopyridine derivative and use thereof” (Takeda Pharmaceutical Company Limited, priority 2002, dated 2009).

Take `Cc1cc(C)c2c(C#N)c(/C=C/C(=O)NC3CCOC(C)(C)C3)n(C3CCc4ccccc43)c2n1` (stereo not drawn) [Example 51, (2E)-3-[3-cyano-1-(indan-1-yl)-4,6-dimethyl-1H-pyrrolo[2,3-b]pyridin-2-yl]-N-(2,2-dimethyltetrahydro-2H-pyran-4-yl)acrylamide]: the Bladder capacity in the assay on SD male rats (3 mg/kg) amounted to 1.76 ± 0.37 mL; in the assay on SD male rats (10 mg/kg), 1.57 ± 0.23 mL. In addition, the Latency in the assay on ICR male mice [1] (10 mg/kg, 3 h after administration) stood at 0.85 ± 0.10 s; with ICR male mice [1] (10 mg/kg, 6 h after administration), 0.64 ± 0.04 s; in the assay on ICR male mice [1] (10 mg/kg, 24 h after administration), 0.78 ± 0.04 s; in the assay with ICR male mice [1] (10 mg/kg, Pre (before administration)), 0.55 ± 0.02 s; in the assay on ICR male mice [1] (30 mg/kg, 3 h after administration) it was 2.31 ± 1.13 s; in the assay on ICR male mice [1] (30 mg/kg, 6 h after administration), 2.04 ± 1.15 s. Besides, the Latency in the assay with ICR male mice [1] (30 mg/kg, 24 h after administration) was 3.36 ± 1.02 s; in the assay with ICR male mice [1] (30 mg/kg, Pre (before administration)) it was 0.70 ± 0.07 s.

For `Cc1cc(C)c2c(C#N)c(/C=C/C(=O)N[C@@H]3CCOC(C)(C)C3)n([C@H]3CCCc4ccccc43)c2n1` [Example 74, (2E)-3-{3-cyano-4,6-dimethyl-1-[(1S)-1,2,3,4-tetrahydronaphthalen-1-yl]-1H-pyrrolo[2,3-b]pyridin-2-yl}-N-[(4R)-2,2-dimethyltetrahydro-2H-pyran-4-yl]prop-2-enamide], in assay [2], the “survival rate of the cells” value is given as 2%. In addition, the ED50 with ICR male mice [3] was 0.55 µg.
